# Test results as given in article PMC6857051, “Proliferative regulation of alveolar epithelial type 2 progenitor cells by human Scnn1d gene” (Theranostics, 2019).
# B1: plasmin: serine protease of the plasmin(ogen) signal pathway for fibrinolysis (protein, UniProt P00747 20-580; P00747 581-810, looked up)
# Plasmin heavy chain A: EPLDDYVNTQGASLFSVTKKQLGAGSIEECAAKCEEDEEFTCRAFQYHSKEQQCVIMAENRKSSIIIRMRDVVLFEKKVYLSECKTGNGKNYRGTMSKTKNGITCQKWSSTSPHRPRFSPATHPSEGLEENYCRNPDNDPQGPWCYTTDPEKRYDYCDILECEEECMHCSGENYDGKISKTMSGLECQAWDSQSPHAHGYIPSKFPNKNLKKNYCRNPDRELRPWCFTTDPNKRWELCDIPRCTTPPPSSGPTYQCLKGTGENYRGNVAVTVSGHTCQHWSAQTPHTHNRTPENFPCKNLDENYCRNPDGKRAPWCHTTNSQVRWEYCKIPSCDSSPVSTEQLAPTAPPELTPVVQDCYHGDGQSYRGTSSTTTTGKKCQSWSSMTPHRHQKTPENYPNAGLTMNYCRNPDADKGPWCFTTDPSVRWEYCNLKKCSGTEASVVAPPPVVLLPDVETPSEEDCMFGNGKGYRGKRATTVTGTPCQDWAAQEPHRHSIFTPETNPRAGLEKNYCRNPDGDVGGPWCYTTNPRKLYDYCDVPQCAAPSFDCGKPQVEPKKCPGR
# Plasmin light chain B: VVGGCVAHPHSWPWQVSLRTRFGMHFCGGTLISPEWVLTAAHCLEKSPRPSSYKVILGAHQEVNLEPHVQEIEVSRLFLEPTRKDIALLKLSSPAVITDKVIPACLPSPNYVVADRTECFITGWGETQGTFGAGLLKEAQLPVIENKVCNRYEFLNGRVQSTELCAGHLAGGTDSCQGDSGGPLVCFEKDKYILQGVTSWGLGCARPNKPGVYVRVSRFVTWIEGVMRNN
# modifications: Plasmin
# notes: serine protease of the plasmin(ogen) signal pathway for fibrinolysis
# Key:
# [1] = system: ENaC activity in mouse AT2 monolayers; assay: Ussing chamber short-circuit current, mAT2 monolayers; type: cell-based; conditions: mAT2 (and MTE) monolayers, Isc, Figure 5D
# Description: Mouse AT2 cell isolation and monolayer cultures. Mouse AT2 cells were isolated from both wt and Scnn1d Tg/Cre strains with C57BL/6 genetic background with a modified protocol of a previous publication, [72]. Briefly, lungs of euthanized mice were removed and incubated in dispase for 45 minutes, and then were gently teased and incubated in DMEM/F-12 + 0.01% DNase I for 10 minutes. Cells were passed through a serial of Nitex filters (100, 40, 30, and 10 microns; Corning, USA) and centrifuged at 300 × g for 10 minutes. Resuspended cells were incubated with biotin conjugated anti-CD16/32, CD45 and CD119 antibodies (BD Pharmingen, USA) and then incubated with streptavidin-coated magnetic particles. The cells were then incubated for 2 h at 37 °C in a plastic culture dish precoated with mouse IgG to remove fibroblasts. Upon passing the request for both viability (> 90%) and purity assays (> 94%) (Figures S7 & S8), mouse laminin 1 precoated transwells (Corning Costar, USA) were seeded with AT2 cells (10^6 cells/cm^2). […] Transepithelial resistance (RT) and potential difference (ET) were measured with an epithelial voltohmmeter (World Precision Instrument, USA). IEQ values were calculated as the ratio of ET / RT values. […] The transmonolayer potential was short circuited to 0 mV, and Isc level was measured with an epithelial voltage clamp (VCC-MC8, Physiologic Instruments). […]
# [2] = system: alveolar fluid clearance in human lungs; assay: Alveolar fluid clearance in human lungs ex vivo; conditions: n=5 per group, 60 minutes after instillation
# Excerpt: Alveolar fluid clearance in human lungs ex vivo. The studies followed the guide of the […] and were approved by the Ethics Committee of the China Medical University (CMU) at Shenyang, China. All patients were given oral and written informed consent forms. Human lung tissues were obtained during pulmonary resection surgeries with lung cancer at the First Affiliated Hospital of CMU. There were no fibrous or emphysematous lesions as assessed by preoperative chest CT scanning. Human lung segments were prepared, and AFC measurements were done as described previously. Briefly, the segmental bronchus was occluded by a 10-Fr. balloon catheter immediately after removal of the lung, and occluded segments that were located furthest away from the focus of tumor were chosen. A warmed physiologic saline solution (20 ml; 37°C) containing 5% BSA with or without amiloride (1 mM) was instilled into the distal air spaces through the catheter. After instillation, the lungs were inflated with 100% oxygen at an airway pressure of 7 cm H2O. Alveolar fluid was aspirated 60 minutes after instillation. […] AFC values were calculated as follows: AFC = [(Vi - Vf)/Vi] × 100, where V is the volume of the instilled albumin solution (i) and the final alveolar fluid (f). […]
# [3] = system: δ802- and γ-ENaC subunits; assay: Immunoblot of cleavage of tagged δ802- and γ-ENaC subunits in oocytes by serine proteases; type: biochemical, human; conditions: 10 μg/ml, 45 minutes at room temperature
# Description: Figure 3 Activation of δ802-containing ENaC channels by serine proteases. (A) Activation of δ802βγ ENaC expressed in Xenopus oocytes by two-chain urokinase plasminogen activator (tc-uPA). ENaC activity was measured at the membrane potential of -100 mV at defined time points post incubation with 10 μg/ml tc-uPA. n = 9-15. mean ± s.e.m. * P<0.05 vs data at the zero minute (min). (B) Time course of stimulatory effects of plasmin on δ802βγ-ENaC activity. n=12. * P<0.05. (C) Identification of subunit responsible for plasmin activation. Fold of amiloride-sensitive current (ASI) of ENaC-associated current in the presence of plasmin over that in the absence of plasmin was computed for oocytes expressing δ802+β+γ (δβγ), δ802 alone (δ), δ802+β(δβ), and δ802+γ (δγ). n = 12-15. * P<0.05. (D) Inhibitory effects of α-13 peptide on δ802αβγ- (δαβγ) and αβγ-ENaC activity post treatment of plasmin and aprotinin. Currents (I) at -100 mV were compared in the absence of amiloride (basal, open bar), presence of α-13 peptide (α13, closed bar), and amiloride (amil, grey bar). n=5. * P<0.05 vs basal currents, & P < 0.05 vs those in the presence of α-13 peptide. (E) Fractions of α-13 sensitive currents in cells pre-treated with plasmin and aprotinin. n=8. Control, without pre-treatment. (F) Cleavage of V5-tagged δ802- and γ-ENaC subunits by serine proteases. NI, non-injected oocytes as negative controls for ENaC expression. Oocytes incubated with chymotrypsin (CT, 10 μg/ml), plasmin (PI, 10 μg/ml) for 45 minutes at room temperature. Cells treated with the same volume of saline (‑) were controls for serine proteases.
molecule,measurement,setting,value
N=C(N)NC(=O)c1nc(Cl)c(N)nc1N [amiloride],"apparent ki value of amiloride, controls versus δ802-expressing cells",[1],much lesser in controls
Ac-LRGTLPHPLQRLR-NH2 [α-13 peptide],fraction of total alveolar fluid clearance inhibited,[2],Approximately half
B1,cleavage of γ-ENaC,[3],catalyzed
same,cleavage of δ802 subunit,[3],Neither chymotrypsin nor plasmin nor endogenous furin cleaved the δ802 subunit
